Results on 3 compounds are retold here after ChEMBL document CHEMBL5104203.

This experiment has as its target Trehalose-binding lipoprotein LpqY (Mycobacterium tuberculosis) (UniProt P9WGU9). The experiment is described as follows: Binding affinity to RED-NHS labelled Mycobacterium tuberculosis LpqY expressed in Escherichia coli BL21 (DE3) assessed as dissociation constant incubated for 10 mins by Microscale thermophoresis analysis. The settings on record: DDE = dose-dependent effect.

Trehalose-binding lipoprotein LpqY (Mycobacterium tuberculosis), sequence (P9WGU9 whole entry): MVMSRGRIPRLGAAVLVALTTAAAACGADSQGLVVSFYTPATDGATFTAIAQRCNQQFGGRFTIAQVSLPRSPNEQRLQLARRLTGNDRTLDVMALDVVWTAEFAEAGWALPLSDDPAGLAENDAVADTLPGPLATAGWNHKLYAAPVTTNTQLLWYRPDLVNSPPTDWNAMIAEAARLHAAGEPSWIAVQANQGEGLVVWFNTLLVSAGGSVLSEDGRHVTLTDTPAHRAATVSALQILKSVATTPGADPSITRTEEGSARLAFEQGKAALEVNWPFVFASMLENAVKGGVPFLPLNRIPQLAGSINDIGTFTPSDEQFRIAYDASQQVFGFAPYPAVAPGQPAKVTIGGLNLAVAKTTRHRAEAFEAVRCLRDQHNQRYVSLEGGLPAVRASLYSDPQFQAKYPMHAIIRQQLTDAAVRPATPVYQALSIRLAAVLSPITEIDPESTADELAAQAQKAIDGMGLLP

`Nc1cccnc1Nc1ccc(Cl)cc1`: the Activity result was “Dde”. For the compound `COc1cc(NC(C)CCCN)c2ncccc2c1` (stereo not drawn), the Activity entry is “Dde”. Regarding `CNC(=O)c1nn(C)c2c1C(C)(C)Cc1cnc(Nc3ccc(N4CCN(C)CC4)cc3)nc1-2`, the Activity result is “Dde”.
